Source: US5312816A, “Method of combatting osteoporosis in mammalian subjects, utilizing organic boron compounds” (priority 1993, dated 1994)
pIC50: −log10 of the molar value. Like-named read-outs stand apart in the source and are kept apart here.

What was measured:
[1] = system: Prostaglandin cyclooxygenase; test: Human osteoporosis fibroblasts prostaglandin cyclooxygenase activity; format: cell-based; conditions: Table XI, 60 min incubation, read-out: Prostaglandin Cyclooxygense IC50
[2] = target: T1, Porcine Pancreatic Elastase (Sus scrofa, UniProt P00772); test: Porcine pancreatic elastase activity in vitro; format: biochemical; conditions: Table IX; commercial enzyme preparation
T1 construct: purchased; host or cells: porcine pancreas
Excerpt: (§1) 2. Elastase- N-succinyl-L-alanyl-L-alanine-p-nitroanilide, pH 8.0, p-nitro anilide 410 nm.

Elastase [3] = test: Human osteoporosis fibroblasts elastase activity; format: cell-based
Excerpt: as §1

Aryl sulphatase [4] = test: Mouse macrophage aryl sulphatase activity; format: cell-based; conditions: Table VII; mouse macrophage cultured cells, 60 min incubation; read-out: Aryl Sulphatase IC50
Excerpt: Mouse macrophages J774A.1 BALB/c

Aryl sulphatase [5] = test: Human osteoporosis fibroblasts aryl sulphatase activity; format: cell-based
Excerpt: 3. Aryl sulphatase- p-nitrocatechol sulfate, pH
5. 8 p-nitro-catechol product 510 nm.

Pg-E2 synthesis = test: 3H-Arachidonic acid conversion to Pg-E2, macrophage; format: cell-based, mouse
Elastase [6] = test: Mouse macrophage elastase activity; format: cell-based; conditions: Table VIII; mouse macrophages, 60 min incubation; read-out: Elastase IC50
Excerpt: Mouse macrophages J774A.1 BALB/c

Hydroxyproline = test: Serum and urine hydroxyproline levels in vivo; conditions: Cf1 male mice, 8 mg/kg/day I.P. 14 days, N=6
Cathepsin D = target: T2, Cathepsin D (Homo sapiens, UniProt P07339); test: Human osteoporosis fibroblasts cathepsin D (azo-casein) activity; format: cell-based
T2 construct: azocasein assay pH 5.0
T2 sequence (P07339 65-412): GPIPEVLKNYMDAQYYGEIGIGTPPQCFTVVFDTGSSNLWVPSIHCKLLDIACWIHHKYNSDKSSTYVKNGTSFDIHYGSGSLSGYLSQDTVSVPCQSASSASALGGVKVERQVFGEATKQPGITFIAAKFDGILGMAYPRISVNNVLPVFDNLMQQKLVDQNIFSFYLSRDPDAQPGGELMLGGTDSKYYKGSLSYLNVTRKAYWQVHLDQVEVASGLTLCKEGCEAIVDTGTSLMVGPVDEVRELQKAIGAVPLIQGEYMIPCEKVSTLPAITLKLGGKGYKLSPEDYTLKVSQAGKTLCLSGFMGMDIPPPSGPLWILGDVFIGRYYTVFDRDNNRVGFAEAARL
Excerpt: Osteoporosis Human Fibroblast-CRL-1140, Be SA1
Acid Cathepsin D -azocasein-pH 5.0, hydrolytic azo-peptide produce 366 nm.

T1 sequence (P00772 27-266): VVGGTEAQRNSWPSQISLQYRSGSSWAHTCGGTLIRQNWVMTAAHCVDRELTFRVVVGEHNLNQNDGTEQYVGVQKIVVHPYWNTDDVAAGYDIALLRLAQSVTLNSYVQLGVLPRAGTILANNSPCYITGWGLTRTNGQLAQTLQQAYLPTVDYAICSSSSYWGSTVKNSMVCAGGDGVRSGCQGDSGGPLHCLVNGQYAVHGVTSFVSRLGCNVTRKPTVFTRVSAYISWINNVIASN

## CCCCCCCCCCCCCCCC[N+](C)(C)[BH2-]C(=O)O [Compound 7, N,N-Dimethylhexadecylamine-carboxyborane]
[1]
  pIC50: 5.17
[2]
  pIC50: 4.30
Elastase [3]; Table VIIIA, osteoporosis fibroblasts in vitro, read-out: Elastase IC-50
  pIC50: 5.41
Elastase [3]; Table XI, human osteoporosis fibroblasts, 60 min incubation, read-out: Elastase IC50
  pIC50: 5.41
Aryl sulphatase [4]
  pIC50: 5.01
Aryl sulphatase [5]; Table VIIIA, osteoporosis fibroblasts in vitro, read-out: Aryl Sulfatase IC-50
  pIC50: 5.05
Aryl sulphatase [5]; Table X, human osteoporosis fibroblasts, read-out: Aryl Sulphatase IC50
  pIC50: 5.05
Pg-E2 synthesis
  macrophage Pg-E2 synthesis reduced: 20%
Pg-E2 synthesis; macrophage
  3H-Arachidonic acid conversion to Pg-E2 reduced: 29%
Elastase [6]
  pIC50: 5.74
Hydroxyproline
  Hydroxyproline serum: 84.1 % Control
  Hydroxyproline urine: 28.7 % Control
Cathepsin D; Table VIIIA, osteoporosis fibroblasts in vitro, read-out: Cathepsin Azo-casein IC-50
  pIC50: 5.69
Cathepsin D; Table X, human osteoporosis fibroblasts, DMEM +10% FCS + P/S, read-out: Cathepsin D IC50
  pIC50: 5.69
